According to ChEMBL document CHEMBL5705893, “Targeting the mitotic checkpoint for cancer therapy with NMS-P715, an inhibitor of MPS1 kinase” (Cancer Res, 2010):
pIC50: −log10 of the molar value. The source made the active and inactive calls. No cut-off for these calls is given here.

Columns and labels:
[1] = target: Tyrosine-protein kinase Lck (Homo sapiens, UniProt P06239); test: Inhibition of recombinant LCK (unknown origin)
[2] = target: Serine/threonine-protein kinase 26 (Homo sapiens, UniProt Q9P289); test: Inhibition of recombinant MST4 (unknown origin)
Serine/threonine-protein kinase 26, sequence (Q9P289 whole entry): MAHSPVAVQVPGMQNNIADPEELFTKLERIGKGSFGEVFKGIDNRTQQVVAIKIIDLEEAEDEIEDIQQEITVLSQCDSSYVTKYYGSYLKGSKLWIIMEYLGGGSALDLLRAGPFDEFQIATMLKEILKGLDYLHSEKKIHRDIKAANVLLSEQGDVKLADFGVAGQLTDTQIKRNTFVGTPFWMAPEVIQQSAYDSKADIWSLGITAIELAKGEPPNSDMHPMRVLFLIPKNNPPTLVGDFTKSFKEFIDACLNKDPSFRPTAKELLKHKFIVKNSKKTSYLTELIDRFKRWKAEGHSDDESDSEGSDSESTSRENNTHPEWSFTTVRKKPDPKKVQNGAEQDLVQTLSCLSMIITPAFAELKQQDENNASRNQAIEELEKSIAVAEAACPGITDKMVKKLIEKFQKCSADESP

[3] = target: Serine/threonine-protein kinase Nek6 (Homo sapiens, UniProt Q9HC98); test: Inhibition of recombinant NEK6 (unknown origin)
Serine/threonine-protein kinase Nek6, sequence (Q9HC98 whole entry): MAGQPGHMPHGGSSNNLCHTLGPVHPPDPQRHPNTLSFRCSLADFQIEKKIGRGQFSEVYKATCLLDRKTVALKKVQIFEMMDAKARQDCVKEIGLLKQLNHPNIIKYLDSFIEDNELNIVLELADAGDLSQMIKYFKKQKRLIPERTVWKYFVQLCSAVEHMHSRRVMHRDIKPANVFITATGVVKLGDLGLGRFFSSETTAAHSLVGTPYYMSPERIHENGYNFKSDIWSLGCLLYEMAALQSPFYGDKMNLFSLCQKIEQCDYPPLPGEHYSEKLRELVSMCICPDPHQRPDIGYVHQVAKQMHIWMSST

[4] = target: Proto-oncogene tyrosine-protein kinase receptor Ret (Homo sapiens, UniProt P07949); test: Inhibition of recombinant RET (unknown origin)
Proto-oncogene tyrosine-protein kinase receptor Ret, sequence (P07949 whole entry): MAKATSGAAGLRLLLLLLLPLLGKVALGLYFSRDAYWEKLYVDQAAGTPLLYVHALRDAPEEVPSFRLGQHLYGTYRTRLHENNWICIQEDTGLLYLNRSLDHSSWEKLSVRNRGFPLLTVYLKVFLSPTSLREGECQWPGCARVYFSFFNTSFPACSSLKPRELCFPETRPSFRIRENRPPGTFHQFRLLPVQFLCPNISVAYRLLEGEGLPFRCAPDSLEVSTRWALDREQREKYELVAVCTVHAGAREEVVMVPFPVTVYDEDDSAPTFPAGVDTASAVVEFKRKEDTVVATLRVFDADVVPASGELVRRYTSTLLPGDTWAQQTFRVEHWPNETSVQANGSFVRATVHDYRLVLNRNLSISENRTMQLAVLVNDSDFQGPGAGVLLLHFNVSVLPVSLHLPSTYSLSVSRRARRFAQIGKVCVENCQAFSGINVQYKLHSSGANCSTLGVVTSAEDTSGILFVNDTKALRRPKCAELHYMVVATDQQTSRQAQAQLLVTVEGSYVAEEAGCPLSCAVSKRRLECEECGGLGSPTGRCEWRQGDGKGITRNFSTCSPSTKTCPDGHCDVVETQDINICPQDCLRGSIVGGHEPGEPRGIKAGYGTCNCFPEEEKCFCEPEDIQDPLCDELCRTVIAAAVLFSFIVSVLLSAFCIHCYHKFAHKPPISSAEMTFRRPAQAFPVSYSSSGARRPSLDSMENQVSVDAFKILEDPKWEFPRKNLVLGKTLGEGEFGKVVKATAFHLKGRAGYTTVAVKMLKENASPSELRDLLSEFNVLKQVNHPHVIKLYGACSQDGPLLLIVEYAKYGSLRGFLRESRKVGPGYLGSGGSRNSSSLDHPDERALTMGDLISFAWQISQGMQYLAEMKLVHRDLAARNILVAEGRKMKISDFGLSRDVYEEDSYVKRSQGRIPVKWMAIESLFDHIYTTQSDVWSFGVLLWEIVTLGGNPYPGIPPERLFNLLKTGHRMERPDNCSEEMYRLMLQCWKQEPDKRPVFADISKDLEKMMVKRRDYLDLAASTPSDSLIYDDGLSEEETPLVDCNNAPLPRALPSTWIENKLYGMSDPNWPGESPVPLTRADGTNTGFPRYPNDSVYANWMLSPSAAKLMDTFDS

[5] = Inhibition of recombinant SULU1 (unknown origin); parameters: species or system Homo sapiens
[6] = system: MDA-MB-231; test: Antiproliferative activity against human MDA-MB-231 cells assessed as inhibition of cell growth incubated for 72 hrs by celltiter-glo assay; format: functional, cell-based; settings: MDA-MB-231, 72 h
[7] = system: T84; test: Antiproliferative activity against human T84 cells assessed as inhibition of cell growth incubated for 72 hrs by celltiter-glo assay; format: functional, cell-based; settings: T84, 72 h
[8] = system: SF-295; test: Antiproliferative activity against human SF-295 cells assessed as inhibition of cell growth incubated for 72 hrs by celltiter-glo assay; format: functional, cell-based; settings: SF-295, 72 h
[9] = system: HOP-92; test: Antiproliferative activity against human HOP-92 cells assessed as inhibition of cell growth incubated for 72 hrs by celltiter-glo assay; format: functional, cell-based; settings: HOP-92, 72 h
[10] = system: NCI-H2228; test: Antiproliferative activity against human NCI-H2228 cells assessed as inhibition of cell growth incubated for 72 hrs by celltiter-glo assay; format: functional, cell-based; settings: NCI-H2228, 72 h
[11] = system: EKVX; test: Antiproliferative activity against human EKVX cells assessed as inhibition of cell growth incubated for 72 hrs by celltiter-glo assay; format: functional, cell-based
[12] = Antiproliferative activity against human GM03798 cells assessed as inhibition of cell growth incubated for 72 hrs by celltiter-glo assay; format: functional, cell-based; settings: GM03798, 72 h
[13] = system: A498; test: Antiproliferative activity against human A498 cells assessed as inhibition of cell growth incubated for 72 hrs by celltiter-glo assay; format: functional, cell-based; settings: A498, 72 h
[14] = system: A2780; test: Cell cycle arrest in human A2780 cells assessed as accumulation of cells at G1 phase at 0.2 to 1 micromol/L incubated for 24 hrs by FACS/PI staining based flow cytometric analysis; format: functional; settings: dose 0.2-1 µmol/L
[15] = target: Epidermal growth factor receptor (Homo sapiens, UniProt P00533)
Epidermal growth factor receptor, sequence (P00533 whole entry): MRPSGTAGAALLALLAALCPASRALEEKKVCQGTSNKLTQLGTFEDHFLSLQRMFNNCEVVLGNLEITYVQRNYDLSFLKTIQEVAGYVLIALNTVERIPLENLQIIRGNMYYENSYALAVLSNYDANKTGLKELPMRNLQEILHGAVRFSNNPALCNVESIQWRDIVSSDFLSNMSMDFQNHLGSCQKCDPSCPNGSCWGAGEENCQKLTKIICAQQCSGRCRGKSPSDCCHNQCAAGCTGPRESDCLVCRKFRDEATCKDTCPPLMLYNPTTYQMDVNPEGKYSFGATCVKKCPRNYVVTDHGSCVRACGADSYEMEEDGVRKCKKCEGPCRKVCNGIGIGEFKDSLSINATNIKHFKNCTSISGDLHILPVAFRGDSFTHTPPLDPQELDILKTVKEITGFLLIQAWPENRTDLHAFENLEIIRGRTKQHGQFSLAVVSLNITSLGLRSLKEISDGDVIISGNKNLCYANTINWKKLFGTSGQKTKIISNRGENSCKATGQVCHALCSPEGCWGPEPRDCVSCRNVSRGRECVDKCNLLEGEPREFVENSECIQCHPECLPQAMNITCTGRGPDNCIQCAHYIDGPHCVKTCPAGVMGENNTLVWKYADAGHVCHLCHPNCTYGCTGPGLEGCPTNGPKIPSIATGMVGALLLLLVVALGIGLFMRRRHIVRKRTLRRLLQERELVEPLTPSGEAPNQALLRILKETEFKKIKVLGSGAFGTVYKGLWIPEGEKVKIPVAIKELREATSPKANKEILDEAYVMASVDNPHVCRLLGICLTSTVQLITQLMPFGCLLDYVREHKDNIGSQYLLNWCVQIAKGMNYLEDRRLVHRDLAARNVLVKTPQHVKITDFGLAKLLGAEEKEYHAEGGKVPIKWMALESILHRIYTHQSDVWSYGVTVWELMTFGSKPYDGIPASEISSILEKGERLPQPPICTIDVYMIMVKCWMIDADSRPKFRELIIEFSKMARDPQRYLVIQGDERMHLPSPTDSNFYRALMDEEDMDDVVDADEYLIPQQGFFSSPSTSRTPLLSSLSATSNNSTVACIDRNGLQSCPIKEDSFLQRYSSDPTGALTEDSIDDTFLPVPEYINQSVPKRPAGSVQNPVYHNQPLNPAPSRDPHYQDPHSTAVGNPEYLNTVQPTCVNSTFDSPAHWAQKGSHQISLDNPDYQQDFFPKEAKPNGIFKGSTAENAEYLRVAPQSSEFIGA
Description: Inhibition of recombinant EGFR1 (unknown origin)

Tyrosine-protein kinase Lck, sequence (P06239 whole entry): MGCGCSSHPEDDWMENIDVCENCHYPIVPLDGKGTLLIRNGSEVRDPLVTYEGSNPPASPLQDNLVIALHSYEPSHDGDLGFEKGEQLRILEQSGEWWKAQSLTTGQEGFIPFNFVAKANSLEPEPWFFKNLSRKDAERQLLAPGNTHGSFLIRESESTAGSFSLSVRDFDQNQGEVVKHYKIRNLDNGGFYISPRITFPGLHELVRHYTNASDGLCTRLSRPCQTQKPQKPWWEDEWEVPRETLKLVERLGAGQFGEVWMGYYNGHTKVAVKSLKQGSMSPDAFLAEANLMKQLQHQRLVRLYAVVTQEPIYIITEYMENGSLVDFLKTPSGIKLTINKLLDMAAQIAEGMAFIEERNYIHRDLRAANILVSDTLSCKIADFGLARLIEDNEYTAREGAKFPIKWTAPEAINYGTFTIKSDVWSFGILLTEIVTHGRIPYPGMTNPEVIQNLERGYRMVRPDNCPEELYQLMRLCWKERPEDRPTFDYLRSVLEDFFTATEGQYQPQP

Work on `CCc1cccc(CC)c1NC(=O)c1nn(C)c2c1CCc1cnc(Nc3ccc(C(=O)NC4CCN(C)CC4)cc3OC(F)(F)F)nc1-2` yielded a pIC50 [1] of less than 5.00, a pIC50 [2] of less than 5.00 and a pIC50 [3] of 5.22. The pIC50 [4] was less than 5.00, the pIC50 [5] was less than 5.00 and the pIC50 [6] was 6.05. The pIC50 [7] was 5.00, the pIC50 [8] was 5.54 and the pIC50 [9] was 5.66. For the same compound, the pIC50 [10] was 5.24, the pIC50 [11] was 5.16 and the pIC50 [12] was 5.03. The pIC50 [13] was 5.77, the Activity [14] was “Active” and the pIC50 [15] was less than 5.00.
